Values after ≈ are worked out from the molar mass of the structure shown.
Key:
Bacillus subtilis = test: Toxicity (MIC) of dialkylated lariat ethers on B. subtilis; assay type: cell-based; settings: B. subtilis 168 WT, 12 h, visual turbidity, read-out: minimum inhibitory concentration (MIC)
Experimental: The cyto-toxicity was determined by measuring the minimum inhibitory concentrations (MIC) for this series of dialkylated lariat ethers in the Gram-negative bacteria Escherichia coli, the Gram-positive bacteria Bacillus subtilis, and human embryonic kidney (HEK293T) cells.
On bacteria. XL1 blue strain Escherichia coli cells transformed with a pET28a plasmid (which contains a kanamycin resistance gene) were grown at 37° C. in 2 mL of LB medium (Miller's LB broth, Research Products International) supplemented with 50 μg/mL of kanamycin until the optical density (600 nm) reached 0.600. The starting density of bacteria in the remainder of the experiments was a 1/100 dilution of this bacterial density, which was split into 4 mL cultures. A series of 400, 100, 10 and 5 mM stock solutions of each dialkylated diaza(18-crown-6) compounds in trifluoroethanol (TFE) were diluted by adding to the 4 mL cultures until final concentrations of 400, 200, 100, 50, 20, 15, 10, 5, 4, 3, 2 and 1 μM were reached, with the final TFE concentration never >0.1% v/v. Negative controls in the presence of TFE 0.1% v/v or the absence of any treatment were done for each batch. The cultures were incubated at 37° C. with agitation for 12 h. Bacillus subtilis (168 WT) toxicity tests were carried out using an identical protocol, except for the addition of the antibiotic. […] Each compound was assayed a minimum of three times at each tested concentration.

B. subtilis membrane = test: DiSC3(5) depolarization assay, lariat ethers; assay type: cell-based, Bacillus subtilis; settings: for DiSC3(5) release: 2 μM, cation-free dextrose solution
Experimental: Dialkylated lariat ethers LEC6-LEC14 were then tested for their ability to depolarize a B. subtilis membrane using the fluorescent dye 3,3-dipropylthiadicarbocyanine (DiSC3(5)), which undergoes membrane voltage-dependent partitioning between the intracellular and the extracellular medium. FIGS. 23-31 show the time course of the DiSC3(5) fluorescence due to the activity of dialkylated lariat ethers with alkyl chains 6 to 14 carbons in length. The experiment was performed in a NMDG-MeSO3 solution (100 mM NMDG, 10 mM HEPES, pH adjusted to 7.4 with methanesulfonic acid). The events are: t1, addition of dye; t2, addition of B. subtilis; t3, addition of a 2 M KCl or a 2 M NMDG-Cl solution up to a final concentration of 60 mM; t4, addition of dialkylated lariat ether up to 2 μM. Control experiments were performed that were similar to the two previously described experiments, with the exception that additional NMDG-MeSO3 solution without cells was added at timepoint t2. The experiments were normalized relative to the final fluorescence intensity in the control experiments, as described below.
To conduct the experiments shown in FIGS. 23-31, a 2-mL liquid culture of B. subtilis cells was grown at 37° C. in LB media until OD600=0.600, and then collected by centrifugation at 2000 rpm during 3 min. The bacteria were washed once in NMDG-MeSO3 solution (100 mM NMDG, 10 mM HEPES, pH adjusted to 7.4 with methanesulfonic acid) or dextrose solution (200 mM dextrose, 10 mM Tris, pH adjusted to 7.4 with HCl) depending on the experiment. The centrifugation step was repeated and the bacteria were resuspended until OD600=1.0 in the same solution. The working dye solution was a 200 μM solution of DiSC3(5) (3,3′-dipropylthiadicarbocyanine iodide; Tokyo Chemical Industry) in DMSO. […] After 150 sec (timepoint t3, 250 sec) the fluorescence stabilized to a minimum intensity and 100 μL of 2M NMDG-Cl, 2M NaCl or 2 M KCl solution was added to reach a about 60 mM final concentration of the salt. […] Fluorescence intensity was recorded each second using a Horiba Fluoromax 4 spectrometer (excitation wavelength=640 nm; emission wavelength=670 nm). […] To normalize the fluorescence, experiments in the same conditions but without adding bacteria were performed, normalization was done by dividing the fluorescence by the final fluorescence level of these experiments.
Cell hyperpolarization (more negatively charged inside the cell) results in an uptake of the dye, while cell membrane depolarization (more positively charged inside the cell) results in a release of the dye. The accumulation of the dye in the interior of the cell can be detected by a decrease in fluorescence due to self-quenching, which enables the dye to be utilized as an indirect reporter of changes in cell membrane voltage. […]

Structure (SMILES): CCCCCCCCCCN1CCOCCOCCN(CCCCCCCCCC)CCOCCOCC1 [LEC10, Didecyl diaza(18-crown-6)]
- MIC (Bacillus subtilis): 2 µM (≈ 1.09 µg/mL)
- relative DiSC3(5) release in the presence of different cations (B. subtilis membrane; 2 μM compound, 60 mM KCl, NaCl or NMDG-Cl, NMDG-MeSO3 solution, 25° C): no significant differences
- DiSC3(5) release (B. subtilis membrane; 60 mM KCl added): large DiSC3(5) release
- DiSC3(5) release (B. subtilis membrane; absence of any external cation): same effect was also observed
